Experimental data from US20140039007A1, “COMPOSITIONS AND METHODS FOR MODULATING FARNESOID X RECEPTORS” (priority 2010, published 2014).
pEC50: −log10 of the molar value.

Molecular target: T1, human GST-FXR LBD (Homo sapiens, UniProt Q96RI1)
T1 construct: purchased Invitrogen
T1 sequence (Q96RI1 193-472 isoform Q96RI1-2): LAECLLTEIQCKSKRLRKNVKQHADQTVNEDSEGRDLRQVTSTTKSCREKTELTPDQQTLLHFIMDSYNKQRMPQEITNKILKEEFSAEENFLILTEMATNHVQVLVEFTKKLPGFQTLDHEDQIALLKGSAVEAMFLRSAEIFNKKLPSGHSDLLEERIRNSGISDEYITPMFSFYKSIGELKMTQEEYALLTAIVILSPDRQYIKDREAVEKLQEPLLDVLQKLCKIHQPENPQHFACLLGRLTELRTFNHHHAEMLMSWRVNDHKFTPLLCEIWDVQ
Test: Human GST-FXR LBD Co-activator interaction Assay (FXR HTRF assay)
Format: biochemical
Details: GST-FXR LBD / biotin-labeled SRC-1 peptide, response relative to GW4064
Source text: Human GST-FXR LBD Co-activator interaction Assay.
The FXR HTRF assay is a biochemical assay measuring the interaction between FXR and a coactivator protein (SRC1). The ligand-induced interaction with a coactivator protein is a critical step in transcriptional activation by FXR. Thus, this is an assay designed to measure FXR agonist activity of compounds.
Recombinant human Farnesoid X Receptor (FXR) ligand binding domain (amino acids 193-472) fused to glutathione S-transferase (GST) purified protein (GST-FXR LBD) was purchased (Invitrogen). The ligand-dependent interaction between GST-FXR LBD and a peptide derived from Steroid Receptor Coactivator-1 (SRC-1) was monitored by Fluorescence Resonance Energy Transfer (FRET). GST-FXR LBD was mixed with a biotin-labeled SRC-1 peptide (Sequence: Biotin-[…]-SPS-CONH2, American Peptide) in assay buffer (50 mM Tris HCl, pH 7.4, 50 mM NaCl, 1 mM TCEP and 0.2% bovine serum albumen) and plated in 384 black Proxi plates (Greiner Bio-One). Test compounds (in DMSO solution) and detection reagents (anti-GST-Cryptate labeled antibody and Streptavidin-XL665 conjugate; CisBio) were added in assay buffer containing 50 mM KF. Plates are incubated at room temperature in the dark for 2.5 hours before reading on an Envision (PerkinElmer) at 665 nm and 590 nm. The HTRF assay results were calculated from the 665 nm/590 nm ratio (ratio=(A665 nm/A590 nm)×10^4) and expressed in Delta F %=(Ratiosample−Rationegative)/Rationegative×100.
A negative control (without Streptavidin-XL665) was run with each assay and represented the background fluorescence. A reference FXR agonist, GW4064, was included in each experiment as positive control. The efficacy of each test compound was compared to that of GW4064. At each concentration, the relative activity of the test compound was expressed as Response %=(Rsample−RDMSO)/(Rpositive−RDMSO), where Rsample is the HTRF response, (expressed in Delta F %) for the test compound, Rpositive is the maximal response for GW4064 at saturating concentrations, and RDMSO is the response for DMSO control. The EC50 values were calculated using GraphPad Prism (GraphPad Software) using non-linear regression curve fit (log(agonist) vs. response−variable slope (four parameters)).

| Compound | pEC50 |
| --- | --- |
| COC(=O)c1ccc(-c2nc(N3CCC(OCc4c(-c5ccccc5OC(F)(F)F)noc4C4CC4)CC3)no2)s1 [Example 3A, methyl 5-{3-[4-({5-cyclopropyl-3-[2-(trifluoromethoxy)phenyl]-1,2-oxazol-4-yl}methoxy)piperidin-1-yl]-1,2,4-oxadiazol-5-yl}thiophene-2-carboxylate] | 6.02 |
| COC(=O)c1ccc(-c2nc(N3CCC(OCc4c(-c5ccccc5OC(F)(F)F)noc4C4CC4)CC3)no2)cc1 [Example 1A, Methyl 4-(3-(4-((5-cyclopropyl-3-(2-(trifluoromethoxy)phenyl)isoxazol-4-yl)methoxy)piperidin-1-yl)-1,2,4-oxadiazol-5-yl)benzoate] | 5.62 |
| O=C(O)c1ccc(-c2nc(N3CCC(OCc4c(-c5ccccc5OC(F)(F)F)noc4C4CC4)CC3)no2)cc1 [Example 1B, 4-(3-(4-((5-cyclopropyl-3-(2-(trifluoromethoxy)phenyl)isoxazol-4-yl)methoxy)piperidin-1-yl)-1,2,4-oxadiazol-5-yl)benzoic acid] | 7.05 |
| COC(=O)c1ccc(-c2nc(N3CCC(OCc4c(-c5c(Cl)cccc5Cl)noc4C4CC4)CC3)no2)s1 [Example 8A, methyl 5-[3-(4-{[5-cyclopropyl-3-(2,6-dichlorophenyl)-1,2-oxazol-4-yl]methoxy}piperidin-1-yl)-1,2,4-oxadiazol-5-yl]thiophene-2-carboxylate] | 5.53 |
| COC(=O)c1cccc(-c2nc(N3CCC(OCc4c(-c5c(Cl)cccc5Cl)noc4C4CC4)CC3)no2)n1 [Example 9A, methyl 6-[3-(4-{[5-cyclopropyl-3-(2,6-dichlorophenyl)-1,2-oxazol-4-yl]methoxy}piperidin-1-yl)-1,2,4-oxadiazol-5-yl]pyridine-2-carboxylate] | 6.33 |
| COC(=O)c1ccc(-c2nc(N3CCC(OCc4c(-c5c(Cl)cccc5Cl)noc4C4CC4)CC3)no2)cc1 [Example 4A] | 6.09 |
| O=C(O)c1cccc(-c2nc(N3CCC(OCc4c(-c5ccccc5OC(F)(F)F)noc4C4CC4)CC3)no2)c1 [Example 2B, 3-{3-[4-({5-cyclopropyl-3-[2-(trifluoromethoxy)phenyl]-1,2-oxazol-4-yl}methoxy)piperidin-1-yl]-1,2,4-oxadiazol-5-yl}benzoic acid] | 6.89 |
| COC(=O)c1cccc(-c2nc(N3CCC(OCc4c(-c5ccccc5OC(F)(F)F)noc4C4CC4)CC3)no2)c1 [Example 2A, methyl 3-{3-[4-({5-cyclopropyl-3-[2-(trifluoromethoxy)phenyl]-1,2-oxazol-4-yl}methoxy)piperidin-1-yl]-1,2,4-oxadiazol-5-yl}benzoate] | 5.69 |
| O=C(O)c1ccc(-c2nc(N3CCC(OCc4c(-c5ccccc5OC(F)(F)F)noc4C4CC4)CC3)no2)s1 [Example 3B, 5-{3-[4-({5-cyclopropyl-3-[2-(trifluoromethoxy)phenyl]-1,2-oxazol-4-yl}methoxy)piperidin-1-yl]-1,2,4-oxadiazol-5-yl}thiophene-2-carboxylic acid] | 6.56 |
| O=C(O)c1ccc(-c2nc(N3CCC(OCc4c(-c5ccccc5C(F)(F)F)noc4C4CC4)CC3)no2)cc1 [Example 11, 4-{3-[4-({5-cyclopropyl-3-[2-(trifluoromethyl)phenyl]-1,2-oxazol-4-yl}methoxy)piperidin-1-yl]-1,2,4-oxadiazol-5-yl}benzoic acid] | 6.23 |
| O=C(O)c1ccc(-c2nc(N3CCC(OCc4c(-c5c(F)cccc5F)noc4C4CC4)CC3)no2)cc1 [Example 10, 4-[3-(4-{[5-cyclopropyl-3-(2,6-difluorophenyl)-1,2-oxazol-4-yl]methoxy}piperidin-1-yl)-1,2,4-oxadiazol-5-yl]benzoic acid] | 6.03 |

Next, values leading:

| pEC50 | Compound |
| --- | --- |
| 7.22 | O=C(O)c1cccc(-c2nc(N3CCC(OCc4c(-c5c(Cl)cccc5Cl)noc4C4CC4)CC3)no2)c1 [Example 5B, 3-[3-(4-{[5-cyclopropyl-3-(2,6-dichlorophenyl)-1,2-oxazol-4-yl]methoxy}piperidin-1-yl)-1,2,4-oxadiazol-5-yl]benzoic acid] |
| 6.94 | O=C(O)c1ccc(-c2nc(N3CCC(OCc4c(-c5c(Cl)cccc5Cl)noc4C4CC4)CC3)no2)cc1 [Example 4B] |
| 6.98 | O=C(O)c1ccc(-c2nc(N3CCC(OCc4c(-c5c(Cl)cccc5Cl)noc4C4CC4)CC3)no2)s1 [Example 8B, 5-[3-(4-{[5-cyclopropyl-3-(2,6-dichlorophenyl)-1,2-oxazol-4-yl]methoxy}piperidin-1-yl)-1,2,4-oxadiazol-5-yl]thiophene-2-carboxylic acid] |
| 5.79 | COC(=O)C1CCC(c2nc(N3CCC(OCc4c(-c5c(Cl)cccc5Cl)noc4C4CC4)CC3)no2)CC1 (stereo not shown) [Example 6A, methyl 4-[3-(4-{[5-cyclopropyl-3-(2,6-dichlorophenyl)-1,2-oxazol-4-yl]methoxy}piperidin-1-yl)-1,2,4-oxadiazol-5-yl]cyclohexane-1-carboxylate] |
| 6.08 | O=C(O)C1CCC(c2nc(N3CCC(OCc4c(-c5c(Cl)cccc5Cl)noc4C4CC4)CC3)no2)CC1 (stereo not shown) [Example 6B, 4-[3-(4-{[5-cyclopropyl-3-(2,6-dichlorophenyl)-1,2-oxazol-4-yl]methoxy}piperidin-1-yl)-1,2,4-oxadiazol-5-yl]cyclohexane-1-carboxylic acid] |
| 5.80 | COC(=O)C1CCC(c2nc(N3CCC(OCc4c(-c5c(Cl)cccc5Cl)noc4C4CC4)CC3)no2)C1 (stereo not shown) [Example 7A, methyl-3-[3-(4-{[5-cyclopropyl-3-(2,6-dichlorophenyl)-1,2-oxazol-4-yl]methoxy}piperidin-1-yl)-1,2,4-oxadiazol-5-yl]cyclopentane-1-carboxylate] |
| 6.89 | O=C(O)c1cccc(-c2nc(N3CCC(OCc4c(-c5c(Cl)cccc5Cl)noc4C4CC4)CC3)no2)n1 [Example 9B, 6-[3-(4-{[5-cyclopropyl-3-(2,6-dichlorophenyl)-1,2-oxazol-4-yl]methoxy}piperidin-1-yl)-1,2,4-oxadiazol-5-yl]pyridine-2-carboxylic acid] |
| 5.81 | O=C(O)C1CCC(c2nc(N3CCC(OCc4c(-c5c(Cl)cccc5Cl)noc4C4CC4)CC3)no2)C1 (stereo not shown) [Example 7B, 3-[3-(4-{[5-cyclopropyl-3-(2,6-dichlorophenyl)-1,2-oxazol-4-yl]methoxy}piperidin-1-yl)-1,2,4-oxadiazol-5-yl]cyclopentane-1-carboxylic acid] |
